# Experimental data from PMC3068608 (Journal of medicinal chemistry, 2011).
# “Also recorded” adds a separate entry of the source. Like-named read-outs stand apart in the source and are kept apart here.
# Assays:
# [1] = biological target: T1, human μ opioid receptor (Homo sapiens, UniProt P35372); experiment: [35S]GTPγS binding mediated by the μ opioid receptor, CHO membranes; assay type: biochemical; settings: for pharmacological properties / IC50: μ receptor; for pharmacological properties: [35S]GTPγS; for IC50: inhibition of binding stimulated by 200 nM DAMGO
# T1 sequence (P35372 whole entry): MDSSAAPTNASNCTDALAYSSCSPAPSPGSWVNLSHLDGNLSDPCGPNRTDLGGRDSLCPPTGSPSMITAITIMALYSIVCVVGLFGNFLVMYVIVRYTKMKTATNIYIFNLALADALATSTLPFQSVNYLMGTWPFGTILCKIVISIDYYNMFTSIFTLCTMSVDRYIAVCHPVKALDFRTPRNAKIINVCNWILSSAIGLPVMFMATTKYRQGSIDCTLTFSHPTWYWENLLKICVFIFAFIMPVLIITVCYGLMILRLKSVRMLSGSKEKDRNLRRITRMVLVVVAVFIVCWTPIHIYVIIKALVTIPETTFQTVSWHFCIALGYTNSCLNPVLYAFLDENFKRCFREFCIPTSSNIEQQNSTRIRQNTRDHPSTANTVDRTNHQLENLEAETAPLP
# [2] = biological target: T2, human κ opioid receptor (Homo sapiens, UniProt P41145); experiment: [35S]GTPγS binding mediated by the κ opioid receptor, CHO membranes; assay type: biochemical; settings: for Emax ± SEM (% maximal stimulation): κ receptor, [35S]GTPγS
# T2 sequence (P41145 whole entry): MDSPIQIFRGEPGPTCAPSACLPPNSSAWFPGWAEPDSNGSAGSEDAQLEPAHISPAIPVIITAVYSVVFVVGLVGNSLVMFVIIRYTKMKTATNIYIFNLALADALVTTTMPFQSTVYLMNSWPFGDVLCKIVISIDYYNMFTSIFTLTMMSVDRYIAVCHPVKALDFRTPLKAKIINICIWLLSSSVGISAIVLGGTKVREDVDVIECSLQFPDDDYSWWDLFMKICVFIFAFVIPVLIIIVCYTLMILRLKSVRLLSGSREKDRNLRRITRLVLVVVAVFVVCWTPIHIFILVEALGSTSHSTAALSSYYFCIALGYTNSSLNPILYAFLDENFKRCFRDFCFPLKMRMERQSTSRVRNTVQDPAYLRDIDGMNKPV
# [3] = biological target: T1, human μ opioid receptor; experiment: Opioid receptor binding, [3H]DAMGO, CHO cell membranes; settings: for Ki (nM) ± SEM [3H]DAMGO (μ): CHO membranes, human μ receptor, 25 °C
# [4] = biological target: T2, human κ opioid receptor; experiment: Opioid receptor binding, [3H]U69,593, CHO cell membranes; settings: for Ki (nM) ± SEM [3H]U69,593 (κ): CHO membranes, human κ receptor, 25 °C; for Selectivity σ/κ: ratio of Ki values (δ over κ)
# [5] = acute and chronic treatment; ref [7]; cited from earlier work
# [6] = biological target: T1, human μ opioid receptor; settings: [35S]GTPγS, ref [5c],[10c]; cited from earlier work
# [7] = biological target: T2, human κ opioid receptor; settings: [35S]GTPγS, ref [5c],[10c]; cited from earlier work
# [8] = biological target: T2, human κ opioid receptor; settings: ratio of Ki values (δ over κ), literature compounds; ref [5c], [10c], [11]; cited from earlier work
# [9] = biological target: T3, human δ opioid receptor (Homo sapiens, UniProt P41143); settings: at 10 μM; ref [5c], [10c], [11]; cited from earlier work
# T3 sequence (P41143 whole entry): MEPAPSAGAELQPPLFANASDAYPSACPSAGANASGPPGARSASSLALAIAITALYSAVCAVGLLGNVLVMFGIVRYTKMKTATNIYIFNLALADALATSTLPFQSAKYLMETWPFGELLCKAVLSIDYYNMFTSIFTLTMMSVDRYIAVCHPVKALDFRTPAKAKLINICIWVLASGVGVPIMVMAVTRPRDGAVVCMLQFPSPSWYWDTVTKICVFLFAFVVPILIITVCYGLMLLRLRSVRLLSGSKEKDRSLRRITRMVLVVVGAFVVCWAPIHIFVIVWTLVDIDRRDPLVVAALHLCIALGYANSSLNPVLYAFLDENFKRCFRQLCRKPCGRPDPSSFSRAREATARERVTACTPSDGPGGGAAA
# [10] = biological target: T3, human δ opioid receptor; experiment: Opioid receptor binding, [3H]naltrindole, CHO cell membranes
structure (smiles),measurement,setting,value
"CNc1nc2cc3c(cc2s1)C[C@@H]1[C@@H]2CCCC[C@]32CCN1CC1CC1 [13a, N′-Methylaminothiazolo[5,4-b]-N-cyclopropylmethylmorphinan]",pharmacological properties,[1],partial agonist activity; also recorded: partial agonists
"CNc1nc2cc3c(cc2s1)C[C@@H]1[C@@H]2CCCC[C@]32CCN1CCCF [13c, N′-Methyl-aminothiazolo[5,4-b]-N-fluoropropylmorphinan]",EC50,[1],420 ± 17 nM
same,pharmacological properties,[1],full agonist activity; also recorded: full agonists
same,IC50,[1],> 10000 nM
same,EC50,[2],120 ± 6.7 nM
same,Emax ± SEM (% maximal stimulation),[2],"higher Emax than that of selective agonist U50,488"
"CCCNc1nc2cc3c(cc2s1)C[C@@H]1[C@@H]2CCCC[C@]32CCN1CCCF [16c, N′-Propyl-aminothiazolo[5,4-b]-N-fluoropropylmorphinan]",Ki (nM) ± SEM [3H]DAMGO (μ),[3],low affinity
same,"Ki (nM) ± SEM [3H]U69,593 (κ)",[4],low affinity
"CN(C)c1nc2cc3c(cc2s1)C[C@@H]1[C@@H]2CCCC[C@]32CCN1CC1CC1 [17a, N′, N′-Dimethyl-aminothiazolo[5,4-b]-N-cyclopropylmethylmorphinan]",pharmacological properties,[1],partial agonist activity
"CN(C)c1nc2cc3c(cc2s1)C[C@@H]1[C@@H]2CCCC[C@]32CCN1CCCF [17c, N′, N′-Dimethyl-aminothiazolo[5,4-b]-N-fluoropropylmethylmorphinan]",Ki (nM) ± SEM [3H]DAMGO (μ),[3],low affinity
same,"Ki (nM) ± SEM [3H]U69,593 (κ)",[4],low affinity
"CCNc1nc2cc3c(cc2s1)C[C@@H]1[C@@H]2CCCC[C@]32CCN1CC1CC1 [19a, N′-Ethyl-aminothiazolo[5,4-b]-N-cyclopropylmethylmorphinan]",EC50,[1],29 ± 4.6 nM
same,pharmacological properties,[1],full agonist activity; also recorded: full agonists
same,IC50,[1],> 10000 nM
same,EC50,[2],22 ± 5.1 nM
same,Emax ± SEM (% maximal stimulation),[2],"higher Emax than that of selective agonist U50,488"
"CCNc1nc2cc3c(cc2s1)C[C@@H]1[C@@H]2CCCC[C@]32CCN1CCCF [19c, N′-Ethyl-aminothiazolo[5,4-b]-N-fluoropropylmorphinan]",pharmacological properties,[1],full agonist activity; also recorded: full agonists
same,IC50,[1],> 10000 nM
same,Emax ± SEM (% maximal stimulation),[2],"higher Emax than that of selective agonist U50,488"
Oc1ccc2c(c1)[C@@]13CCCC[C@H]1[C@@H](C2)N(CC1CCC1)CC3 [butorphan],cocaine self-administration,[5],reduced cocaine self-administration dose-dependently
"Oc1ccc2c(c1)[C@@]13CCCC[C@H]1[C@@H](C2)N(CC1CC1)CC3 [compound 1, cyclorphan, reference compound]",pharmacological properties,[6],Partial agonist
same,Emax ± SEM (% maximal stimulation),[7],90 ±10 % maximal stimulation
same,cocaine self-administration,[5],reduced cocaine self-administration dose-dependently
Nc1nc2cc3c(cc2o1)[C@@]12CCCC[C@H]1[C@@H](C3)N(CC1CC1)CC2 [compound 4],Selectivity σ/κ,[8],>192
same,inhibition of [3H]Naltrindole (δ) binding,[9],18% inh at 10 μM
"Nc1nc2cc3c(cc2s1)C[C@@H]1[C@@H]2CCCC[C@]32CCN1CCCF [compound 11, Aminothiazolo[5,4-b]-N-fluoropropylmorphinan]",pharmacological properties,[1],partial agonist activity
"Nc1nc2cc3c(cc2s1)C[C@@H]1[C@@H]2CCCC[C@]32CCN1C[C@@H]1CCCO1 [compound 12, Aminothiazolo[5,4-b]-N-(S)-tetrahydrofurylmethylmorphinan]",pharmacological properties,[1],full agonist activity; also recorded: full agonists
same,IC50,[1],> 10000 nM
"FC(F)(F)CNc1nc2cc3c(cc2s1)C[C@@H]1[C@@H]2CCCC[C@]32CCN1CC1CC1 [compound 15, N′-Trifluoroethyl-aminothiazolo[5,4-b]-N-cyclopropylmethylmorphinan]",Emax ± SEM (% maximal stimulation),[2],"higher Emax than that of selective agonist U50,488"
"c1ccc(Nc2nc3cc4c(cc3s2)C[C@@H]2[C@@H]3CCCC[C@]43CCN2CC2CC2)nc1 [compound 27, N′-(Pyridin-2-yl)-aminothiazolo[5,4-b]-N-cyclopropylmethylmorphinan]",Selectivity σ/κ,[4],>110
"c1c2c(cc3sc(N4CCNCC4)nc13)C[C@@H]1[C@@H]3CCCC[C@]23CCN1CC1CC1 [compound 28, N′-(Piperazin-1-yl)-thiazolo[5,4-b]-N-cyclopropylmethylmorphinan]",Ki,[10],> 10000 nM
same,Ki,[3],2700 ± 320 nM
same,Ki,[4],110 ± 16 nM
same,Selectivity μ/κ,[4]; ratio of Ki values,25
same,Selectivity σ/κ,[4],>91
